The nature of the series: Meropenem concentration in stool of mice given meropenem in drinking water. In kind it is in vivo. The conditions noted are these: mouse, oral; 0.625 g/L in drinking water; normal SPF mice; stool 48 hours after starting; median±SE; read-out: meropenem concentration in fecal samples. The method, then: To further explore a potential causal relationship between meropenem and intestinal GVHD, the effects of meropenem on GVHD in a mouse model of allo-HSCT were examined. A method of administering meropenem to mice was first developed that would better mimic the effects of meropenem on the intestinal microbiome of patients, which is typically given every 8 hours intravenously. Previously, antibiotics were administered subcutaneously to mice (25), and meropenem concentrations were quantified in the cecal lumen of mice 4, 8, 24, 48 and 96 hours after subcutaneous injection. […] Next, drinking water was evaluated as a means of continuously administering meropenem to mice, using bacterial density quantified by 16S ribosomal RNA (16S rRNA) gene quantitative PCR (qPCR) to gauge reductions of the intestinal microbiota.
Murine isolates of Enterococcus faecalis (MDA-JAX EF001), Clostridium disporicum (MDA-JAX CD001), Clostridium saudiense (MDA-JAX CS001), and Lachnospiraceae unclassified (MDA-JAX LS001) were also tested.
Antibiotics administration.

Take `C[C@@H](O)[C@H]1C(=O)N2C(C(=O)O)=C(S[C@@H]3CN[C@H](C(=O)N(C)C)C3)[C@H](C)[C@H]12` [meropenem]: the concentration at 48 h is 110 ± 70 ng/g.

Values taken from patent US20240216410A1, “METHODS AND COMPOSITIONS FOR TREATING CANCER THERAPY-INDUCED NEUTROPENIC FEVER AND/OR GVHD” (BOARD OF REGENTS, THE UNIVERSITY OF TEXAS SYSTEM, priority 2021, published 2024).
